{"source": "paper PMC3912631", "about": "“Bench to Bed Evidences for Pharmacokinetic and Pharmacodynamic Interactions Involving Oseltamivir and Chinese Medicine” (Evidence-based Complementary and Alternative Medicine : eCAM, 2014)", "test": "Rat pharmacokinetics of OA and OC in plasma and urine after oral OA alone or with CMF1", "type": "in vivo, Sprague-Dawley rats", "settings": "for Tmax / Cmax / CL renal / half-life: male, Sprague-Dawley, in vivo, po, 30 mg/kg; for Tmax / Cmax / CL renal / half-life / AUC0–8 h / AUC0–inf / Renal recovery: oral, bid for 5 days; for Tmax: mean ± SD, read-out: T max (converted); for Cmax: read-out: C max; for CL renal: read-out: CL renal; for half-life: read-out: t 1/2, λz; for Renal recovery: urine over 8 h", "protocol": "The study was approved by the Animal Ethics Committee of The Chinese University of Hong Kong. Male Sprague-Dawley rats (230–250 g) were utilized and supplied by the Laboratory Animal Service Center at The Chinese University of Hong Kong. The rats were housed under standard conditions of temperature, humidity, and light and randomly divided into six groups with 10–12 rats in each group. […] The dose of 1.95 g/kg CMF1 is calculated based on the human dose recommended by the Chinese physicians and a doubled dose of CMF1 at […] is also used in the current study due to the potential large dosing range for Chinese medicine adopted in the practice. […]\nFor dosing, OA (4 mg/mL) was freshly prepared by dissolving it in water and orally given to rats by gavage, bid (twice daily) for 4 days (9:00am and 6:00pm for each day), and CMF1 was also freshly suspended in water and then orally given to rats 2 h later of OA dosing (11:00 am and 8:00 pm for each day).\nFor Groups of 1 to 3, a surgery for jugular vein cannulation was performed 1 h after CMF1 second dosing on day 4. A polyethylene catheter (0.50 mm ID, 1.00 mm OD, Portex Limited, Hythe, Kent, England) was cannulated into the right jugular vein under anesthesia. After surgery, the rat was placed in separated metabolic cage and allowed to recover and fasted overnight with free access to water. In the morning of day 5, blood samples (0.2 mL each) of the rats in the Groups 1–3 were collected via the catheter at 0, 15, 30, 60, 90, 120, 180, 240, 360, and 480 min after dosing of OA. After which, 0.2 mL of normal saline containing 20 units/mL of heparin was then injected into the catheter to flush the catheter. The collected blood samples were immediately placed in heparinized tubes containing dichlorvos (5 μL of 8 mg/mL dichlorvos in normal saline) for inhibition of carboxylesterase, followed by centrifugation to obtain the plasma and stored at −80°C. Urine samples were collected over 8 h postdose and combined with water used for rinsing the metabolic cage, further diluted to 200 mL, and then stored at −80°C until assay.\nThe rat/human plasma and urine samples were treated and analyzed by an LC/MS/MS system as previously described. Briefly, 200 μL plasma/urine samples was mixed with cephalexin hydrate (internal standard, IS) working solution (final 2 μg/mL) and acidified with 1 mL of 10% perchloric acid in water (if necessary, dilution with blank human urine was required for urine samples). After mixing and centrifugation, the supernatant was loaded in prewashed Oasis MCX cartridge (1 cc, 30 mg, Waters) and the cartridge was rinsed subsequently with 1% formic acid, water, and methanol followed by vacuum dried for 20 min. The analytes were then eluted with 1 mL of 1% ammonia in methanol. The eluting solvent was dried by a vacuum concentrator and the residue was reconstituted with 200 μL of 0.1% formic acid : methanol (1 : 1 v/v) prior to HPLC/MS/MS analysis using an ABI 2000 Q-Trap triple quadrupole mass spectrometer (Applied Biosystems) coupled with PE-200 series micropumps and autosampler (Perkin-Elmer). The chromatographic separation was achieved by using a Nova-Pak CN HP column (75 × 3.9 mm i.d., 4 μm particle size, Waters) and the HPLC solvent system consisted of methanol (A) and 0.1% formic acid in water (B), with 50% A (for plasma samples) or 60% A (for urine samples) at 1 mL/min. The temperatures of autosampler and the analytical column were set at 4°C and ambient, respectively, and the sample injection volume was 20 μL. Prior to the mass spectrometric system, 60% of the LC eluent was split off and only 40% of the eluent was introduced into the ESI source.\nThe plasma/urine OA and OC concentrations versus time profiles were analyzed using WinNonlin software standard edition version 2.1 (Pharsight Corporation). […] In human study, trough concentration (C trough) was defined as the minimum concentration obtained and was obtained at 12 h post-dose. […]", "key": {"[1]": {"settings": "Group 2: OA 30 mg/kg + CMF1 at 1.95 mg/kg"}, "[2]": {"settings": "Group 3: OA 30 mg/kg + CMF1 at 3.90 mg/kg"}}, "note": "Like-named read-outs stand apart in the source and are kept apart here.", "data": [{"smiles": "CCC(CC)O[C@@H]1C=C(C(=O)O)C[C@H](N)[C@H]1NC(C)=O", "note": "[OC, oseltamivir carboxylate]", "values": [{"measurement": "decrease of C max, urinary recovery and AUC of OC and OC/OA AUC ratio in OA + CMF1 groups vs OA alone", "setting": "dose-dependent", "result": "26%-27%"}, {"measurement": "Tmax", "setting": "Group 1: OA alone 30 mg/kg", "result": 1.75, "unit": "h"}, {"measurement": "Cmax", "setting": "Group 1: OA alone 30 mg/kg", "result": "1650 ± 400", "unit": "ng/mL"}, {"measurement": "CL renal", "setting": "Group 1: OA alone 30 mg/kg", "result": "6.33 ± 1.27", "unit": "mL/min"}, {"measurement": "half-life", "setting": "Group 1: OA alone 30 mg/kg", "result": "2.53 ± 0.418", "unit": "h"}, {"measurement": "Tmax", "setting": "[1]", "result": 1.77, "unit": "h"}, {"measurement": "Cmax", "setting": "[1]", "result": "1360 ± 280", "unit": "ng/mL"}, {"measurement": "CL renal", "setting": "[1]", "result": "6.27 ± 1.76", "unit": "mL/min"}, {"measurement": "half-life", "setting": "[1]", "result": "2.44 ± 0.318", "unit": "h"}, {"measurement": "Tmax", "setting": "[2]", "result": 2, "unit": "h"}, {"measurement": "Cmax", "setting": "[2]", "result": "1190 ± 230", "unit": "ng/mL"}, {"measurement": "CL renal", "setting": "[2]", "result": "6.34 ± 0.69", "unit": "mL/min"}, {"measurement": "half-life", "setting": "[2]", "result": "2.61 ± 0.28", "unit": "h"}, {"measurement": "AUC0–8 h", "setting": "Group 1: OA alone 30 mg/kg", "result": "418.81 ± 90.86", "unit": "μg∗min/mL"}, {"measurement": "AUC0–inf", "setting": "Group 1: OA alone 30 mg/kg", "result": "485.45 ± 113.03", "unit": "μg∗min/mL"}, {"measurement": "AUC0–8 h", "setting": "[1]", "result": "344.13 ± 91.46", "unit": "μg∗min/mL"}, {"measurement": "AUC0–inf", "setting": "[1]", "result": "395.67 ± 109.41", "unit": "μg∗min/mL"}, {"measurement": "AUC0–8 h", "setting": "[2]", "result": "304.84 ± 40.32", "unit": "μg∗min/mL"}, {"measurement": "AUC0–inf", "setting": "[2]", "result": "359.21 ± 41.30", "unit": "μg∗min/mL"}, {"measurement": "Renal recovery", "setting": "Group 1: OA alone 30 mg/kg", "result": "35.26 ± 5.40 % of dose"}, {"measurement": "Renal recovery", "setting": "[1]", "result": "29.73 ± 7.33 % of dose"}, {"measurement": "Renal recovery", "setting": "[2]", "result": "25.94 ± 3.09 % of dose"}]}]}
